Assay results: ChEMBL document CHEMBL6114991, “Design, synthesis, and biological evaluation of novel quinoline carboxylic acid based styryl/alkyne hybrid molecule as a potent anti-adipogenic and antidyslipidemic agent via activation of Wnt/β-catenin pathway” (Eur J Med Chem, 2025)
Active and inactive are the calls of the source.

Columns and labels:
3T3-L1 [1] = test: Inhibition of adipogenesis in mouse 3T3-L1 cells assessed as downregulation of FABP4 expression at 10 uM measured at upto 7 days by immunoblotting analysis; type: functional, cell-based; conditions: time <= 7.0 day
3T3-L1 [2] = test: Anti-adipogenic activity in mouse 3T3-L1 cells assessed as suppression of adipogenesis at 1 uM by oil red O staining based analysis; type: functional, cell-based
3T3-L1 [3] = test: Anti-adipogenic activity in mouse 3T3-L1 cells assessed as increase in GATA2 mRNA expression by measuring fold change at 10 uM incubated for 16 to 24 hrs; type: functional; conditions: time 16-24 hrs
[4] = Toxicity in Golden Syrian hamster assessed as reduction in adipocyte hypertrophy at 100 mg/kg, po administered for 7 days; type: organism-based, Mesocricetus auratus; conditions: in vivo, 168 h, time 7 day
3T3-L1 [5] = test: Induction of cell cycle arrest in mouse 3T3-L1 cells assessed as reduction in percentage of cells at G1 phase at 10 uM incubated for 16 to 24 hrs by flow cytometry analysis; type: functional, cell-based; conditions: time 16-24 hrs
Syrian golden hamster [6] = test: Anti-dyslipidemic activity in HFD-induced Golden Syrian hamster model assessed as decrease in PPARgamma level at 100 mg/kg, po administered for 7 days by Western blot analysis; type: functional, organism-based; conditions: Mesocricetus auratus, time 7.0 day
[7] = Clearance in Golden Syrian hamster at 100 mg/kg, po measured upto 24 hrs by LC-MS/MS analysis; type: ADME, organism-based, Mesocricetus auratus; conditions: in vivo
Syrian golden hamster [8] = test: Anti-dyslipidemic activity in HFD-induced Golden Syrian hamster model assessed as decrease in eWAT accumulation at 100 mg/kg, po administered for 7 days; type: functional, organism-based; conditions: Mesocricetus auratus, time 7.0 day
3T3-L1 [9] = test: Inhibition of adipogenesis in mouse 3T3-L1 cells assessed as downregulation of CEBPalpha expression at 10 uM measured at upto 3 days by immunoblotting analysis; type: functional, cell-based; conditions: time <= 3.0 day
[10] = Toxicity in Golden Syrian hamster assessed as body weight gain at 100 mg/kg, po administered for 7 days; type: organism-based, Mesocricetus auratus; conditions: in vivo, 168 h, time 7 day
3T3-L1 [11] = test: Induction of cell cycle arrest in mouse 3T3-L1 cells assessed as reduction in CDK2 level at 10 uM incubated for 16 to 24 hrs by immunoblotting analysis; type: functional, cell-based; conditions: time 16-24 hrs
3T3-L1 [12] = test: Inhibition of adipogenesis in mouse 3T3-L1 cells assessed as downregulation of FABP4 expression at 10 uM measured at upto 3 days by immunoblotting analysis; type: functional, cell-based; conditions: time <= 3.0 day
3T3-L1 [13] = test: Inhibition of adipogenesis in mouse 3T3-L1 cells assessed as downregulation of FABP4 expression at 10 uM measured at upto 5 days by immunoblotting analysis; type: functional, cell-based; conditions: time <= 5.0 day
[14] = AUC in Golden Syrian hamster at 100 mg/kg, po measured upto 24 hrs by LC-MS/MS analysis; type: ADME, organism-based, Mesocricetus auratus; conditions: in vivo
3T3-L1 [15] = test: […] of Wnt/beta-catenin signalling in mouse 3T3-L1 cells assessed as increase in beta-catenin level at 10 uM by immunoblotting analysis; type: cell-based
[16] = Toxicity in Golden Syrian hamster assessed as reduction in TG level in serum at 100 mg/kg, po administered for 7 days; type: organism-based, Mesocricetus auratus; conditions: in vivo, 168 h, time 7 day
[17] = Toxicity in Golden Syrian hamster assessed as reduction in liver weight at 100 mg/kg, po administered for 7 days; type: organism-based, Mesocricetus auratus; conditions: in vivo, 168 h, time 7 day
3T3-L1 [18] = test: Anti-adipogenic activity in mouse 3T3-L1 cells assessed as reduction in lipid accumulation at 10 uM measured at upto 3 days; type: functional, cell-based; conditions: time <= 3.0 day
[19] = Toxicity in Golden Syrian hamster assessed as reduction in TC level in serum at 100 mg/kg, po administered for 7 days; type: organism-based, Mesocricetus auratus; conditions: in vivo, 168 h, time 7 day
3T3-L1 [20] = test: Anti-adipogenic activity in mouse 3T3-L1 cells assessed as increase in beta-catenin mRNA expression at 10 uM incubated for 16 to 24 hrs; type: functional, cell-based; conditions: time 16-24 hrs
3T3-L1 [21] = test: […] of Wnt/beta-catenin signalling in mouse 3T3-L1 cells assessed as increase in GSK3beta level at 10 uM by immunoblotting analysis; type: cell-based
[22] = Cmax in Golden Syrian hamster at 100 mg/kg, po measured upto 24 hrs by LC-MS/MS analysis; type: ADME, organism-based, Mesocricetus auratus; conditions: in vivo
3T3-L1 [23] = test: Inhibition of adipogenesis in mouse 3T3-L1 cells assessed as downregulation of PPARgamma expression at 10 uM measured at upto 3 days by immunoblotting analysis; type: functional, cell-based; conditions: time <= 3.0 day
3T3-L1 [24] = test: Anti-adipogenic activity in mouse 3T3-L1 cells assessed as change in lipid content at 10 uM measured at 3 to 5 days; type: functional, cell-based; conditions: time 3-5 day
3T3-L1 [25] = test: Anti-adipogenic activity in mouse 3T3-L1 cells assessed as change in lipid content at 10 uM measured at 5 to 7 days; type: functional, cell-based; conditions: time 5-7 day
3T3-L1 [26] = test: Induction of cell cycle arrest in mouse 3T3-L1 cells assessed as reduction in cyclin D1 level at 10 uM incubated for 16 to 24 hrs by immunoblotting analysis; type: functional, cell-based; conditions: time 16-24 hrs
3T3-L1 [27] = test: Induction of cell cycle arrest in mouse 3T3-L1 cells assessed as reduction in number of cells at G1 phase at 10 uM incubated for 16 to 24 hrs by flow cytometry analysis; type: functional, cell-based; conditions: time 16-24 hrs
3T3-L1 [28] = test: Inhibition of adipogenesis in mouse 3T3-L1 cells assessed as downregulation of FASN expression at 10 uM measured at upto 3 days by immunoblotting analysis; type: functional, cell-based; conditions: time <= 3.0 day
[29] = Volume of distribution in Golden Syrian hamster at 100 mg/kg, po measured upto 24 hrs by LC-MS/MS analysis; type: ADME, organism-based, Mesocricetus auratus; conditions: in vivo
3T3-L1 [30] = test: Inhibition of adipogenesis in mouse 3T3-L1 cells assessed as downregulation of PPARgamma expression at 10 uM measured at upto 5 days by immunoblotting analysis; type: functional, cell-based; conditions: time <= 5.0 day
3T3-L1 [31] = test: Anti-adipogenic activity in mouse 3T3-L1 cells assessed as reduction in lipid accumulation at 10 uM in presence of FH535 by microscopic analysis; type: functional, cell-based
3T3-L1 [32] = test: Induction of cell cycle arrest in mouse 3T3-L1 cells assessed as reduction in cyclin D3 level at 10 uM incubated for 16 to 24 hrs by immunoblotting analysis; type: functional, cell-based; conditions: time 16-24 hrs
3T3-L1 [33] = test: Inhibition of adipogenesis in mouse 3T3-L1 cells assessed as downregulation of CEBPalpha expression at 10 uM measured at upto 5 days by immunoblotting analysis; type: functional, cell-based; conditions: time <= 5.0 day
[34] = Tmax in Golden Syrian hamster at 100 mg/kg, po measured upto 24 hrs by LC-MS/MS analysis; type: ADME, organism-based, Mesocricetus auratus; conditions: in vivo
3T3-L1 [35] = test: Cytotoxicity against mouse 3T3-L1 cells assessed as cell viability at 10 uM incubated for 48 hrs by MTT assay; type: toxicity, cell-based; conditions: 3t3-l1, 48 h
3T3-L1 [36] = test: Cytotoxicity against mouse 3T3-L1 cells assessed as cell viability upto 100 uM incubated for 48 hrs by MTT assay; type: toxicity, cell-based; conditions: 3t3-l1, 48 h
3T3-L1 [37] = test: Anti-adipogenic activity in mouse 3T3-L1 cells assessed as suppression of adipogenesis at 20 uM measured for 72 hrs by oil red O staining based analysis; type: functional
[38] = MRT in Golden Syrian hamster at 100 mg/kg, po measured upto 24 hrs by LC-MS/MS analysis; type: ADME, organism-based, Mesocricetus auratus; conditions: in vivo
3T3-L1 [39] = test: Cytotoxicity against mouse 3T3-L1 cells assessed as cell viability at 30 uM incubated for 48 hrs by MTT assay; type: toxicity, cell-based; conditions: 3t3-l1, 48 h
Syrian golden hamster [40] = test: Anti-dyslipidemic activity in HFD-induced Golden Syrian hamster model assessed as decrease in CEBPalpha level at 100 mg/kg, po administered for 7 days by Western blot analysis; type: functional, organism-based; conditions: Mesocricetus auratus, time 7.0 day
3T3-L1 [41] = test: Anti-adipogenic activity in mouse 3T3-L1 cells assessed as reduction in lipid accumulation at 10 uM measured at upto 5 days; type: functional, cell-based; conditions: time <= 5.0 day

Cc1ccc(/C=C/c2ccc(-c3cc(C(=O)O)c4cc(F)ccc4n3)cc2)cc1
70%: Activity (3T3-L1 [37])
2.89 h: MRT [38]
15 min: Tmax [34]
17700 ng/mL: Cmax [22]
46.8 mL/min/kg: CL/F [7]
35700 ng·h/mL: AUC at 24 h [14]
active: inhibition (3T3-L1 [1]) | Activity (3T3-L1 [2]) | Activity (3T3-L1 [5]) | Activity (Syrian golden hamster [6]) | Activity (Syrian golden hamster [8]) | inhibition (3T3-L1 [9]) | Activity (3T3-L1 [11]) | inhibition (3T3-L1 [12]) | inhibition (3T3-L1 [13]) | inhibition (3T3-L1 [15]) | Activity (3T3-L1 [18]) | Activity (3T3-L1 [20]) | inhibition (3T3-L1 [21]) | inhibition (3T3-L1 [23]) | Activity (3T3-L1 [24]) | Activity (3T3-L1 [25]) | Activity (3T3-L1 [26]) | Activity (3T3-L1 [27]) | inhibition (3T3-L1 [28]) | inhibition (3T3-L1 [30]) | Activity (3T3-L1 [31]) | Activity (3T3-L1 [32]) | inhibition (3T3-L1 [33]) | Activity (Syrian golden hamster [40]) | Activity (3T3-L1 [41])
10: fold change (FC) (3T3-L1 [3])
14.79 L/kg: Vd [29]
Toxic: Activity (3T3-L1 [36]) | Activity (3T3-L1 [39])
Non-toxic: Activity [4] | Activity [10] | Activity [16] | Activity [17] | Activity [19] | Activity (3T3-L1 [35])
